Publication doi:10.1101/2025.10.23.684218v2, “Development of a dual chemical probe for the USP16 and HDAC6 zinc-finger ubiquitin-binding domain” (biorxiv, 2025)
Where two headings read alike, the source gives them in different places.

How the values were obtained:
Test in all cases: biochemical
Parameters in all cases: SPR, steady-state binding to immobilised biotinylated UBD proteins
BRAP = target: T1, BRAP (Homo sapiens, UniProt Q7Z569)
T1 construct: UBD, residues 304-390
T1 sequence (Q7Z569 1-592): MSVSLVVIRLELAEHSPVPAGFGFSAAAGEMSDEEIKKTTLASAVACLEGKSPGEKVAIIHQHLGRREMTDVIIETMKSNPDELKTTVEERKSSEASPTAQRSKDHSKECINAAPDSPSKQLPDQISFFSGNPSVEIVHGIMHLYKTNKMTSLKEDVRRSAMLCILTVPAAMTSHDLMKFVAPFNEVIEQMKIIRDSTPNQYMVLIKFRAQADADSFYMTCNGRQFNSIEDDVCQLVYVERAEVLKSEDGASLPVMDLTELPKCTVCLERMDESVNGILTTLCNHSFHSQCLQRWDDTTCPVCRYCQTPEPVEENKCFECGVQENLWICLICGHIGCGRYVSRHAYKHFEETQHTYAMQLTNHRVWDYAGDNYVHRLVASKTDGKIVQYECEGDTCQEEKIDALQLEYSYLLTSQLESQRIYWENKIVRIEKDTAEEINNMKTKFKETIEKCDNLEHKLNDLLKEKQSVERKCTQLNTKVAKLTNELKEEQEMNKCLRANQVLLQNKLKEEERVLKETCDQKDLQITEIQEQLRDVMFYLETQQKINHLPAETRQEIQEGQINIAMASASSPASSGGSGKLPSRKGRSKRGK

USP3 = target: T2, USP3 (Homo sapiens, UniProt Q9Y6I4)
T2 sequence (Q9Y6I4 1-520): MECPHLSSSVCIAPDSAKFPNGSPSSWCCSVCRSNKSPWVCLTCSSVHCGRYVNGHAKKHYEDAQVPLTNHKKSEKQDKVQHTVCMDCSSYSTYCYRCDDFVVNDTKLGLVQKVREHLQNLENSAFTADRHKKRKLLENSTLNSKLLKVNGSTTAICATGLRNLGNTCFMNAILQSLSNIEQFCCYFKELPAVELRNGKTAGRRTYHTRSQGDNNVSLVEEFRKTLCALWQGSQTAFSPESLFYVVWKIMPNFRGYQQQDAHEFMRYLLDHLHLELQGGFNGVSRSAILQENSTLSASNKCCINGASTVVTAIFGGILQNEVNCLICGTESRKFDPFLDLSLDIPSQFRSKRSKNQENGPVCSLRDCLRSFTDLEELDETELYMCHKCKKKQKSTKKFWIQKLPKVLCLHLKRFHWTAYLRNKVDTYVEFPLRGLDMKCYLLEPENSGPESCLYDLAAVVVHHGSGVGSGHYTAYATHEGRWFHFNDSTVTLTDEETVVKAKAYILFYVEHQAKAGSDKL

USP33 = target: T3, USP33 (Homo sapiens, UniProt Q8TEY7)
T3 construct: UBD, residues 29-134
T3 sequence (Q8TEY7 1-942): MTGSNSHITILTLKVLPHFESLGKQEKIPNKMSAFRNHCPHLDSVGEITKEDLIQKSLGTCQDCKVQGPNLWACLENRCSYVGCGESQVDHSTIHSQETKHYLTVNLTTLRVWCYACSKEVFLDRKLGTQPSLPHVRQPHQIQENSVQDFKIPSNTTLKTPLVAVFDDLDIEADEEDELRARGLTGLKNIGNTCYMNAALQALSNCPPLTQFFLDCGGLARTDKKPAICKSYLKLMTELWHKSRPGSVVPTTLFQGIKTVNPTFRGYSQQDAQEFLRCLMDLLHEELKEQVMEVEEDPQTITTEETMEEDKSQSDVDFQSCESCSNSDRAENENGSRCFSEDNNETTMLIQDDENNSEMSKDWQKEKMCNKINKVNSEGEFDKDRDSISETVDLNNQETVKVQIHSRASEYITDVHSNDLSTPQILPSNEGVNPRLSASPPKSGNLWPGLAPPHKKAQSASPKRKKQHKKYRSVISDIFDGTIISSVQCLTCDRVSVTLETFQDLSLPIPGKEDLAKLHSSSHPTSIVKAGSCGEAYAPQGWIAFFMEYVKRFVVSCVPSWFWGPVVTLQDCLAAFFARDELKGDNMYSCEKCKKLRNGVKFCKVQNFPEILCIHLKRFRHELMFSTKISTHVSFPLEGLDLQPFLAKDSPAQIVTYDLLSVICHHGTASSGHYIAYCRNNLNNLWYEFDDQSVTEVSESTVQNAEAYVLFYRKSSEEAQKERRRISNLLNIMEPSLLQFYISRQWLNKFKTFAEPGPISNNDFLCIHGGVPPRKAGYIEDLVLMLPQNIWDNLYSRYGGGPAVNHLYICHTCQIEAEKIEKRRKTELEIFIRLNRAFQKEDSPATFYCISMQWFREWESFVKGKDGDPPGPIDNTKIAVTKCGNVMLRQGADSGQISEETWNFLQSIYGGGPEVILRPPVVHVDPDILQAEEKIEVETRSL

[1] = read-out: Negative Control KD (nM) SGC-UBD1031N
[2] = read-out: Probe KD (nM) SGC-UBD1031

Row | Kd (BRAP; [1]) [nM] | Kd (USP3; [1]) [nM] | Kd (USP33; [1]) [nM] | Kd (BRAP; [2]) [nM] | Kd (USP3; [2]) [nM] | Kd (USP33; [2]) [nM] | Structure (SMILES)
1 | > 10000 | 8700 ± 1800 | > 10000 | – | – | – | C[C@@H](NC(=O)Cn1c(CCC(=O)O)nc2c(Cl)cccc2c1=O)c1c(F)cccc1F [compound 16, (R)-3-(8-chloro-3-(2-((1-(2,6-difluorophenyl)ethyl)amino)-2-oxoethyl)-4-oxo-3,4-dihydroquinazolin-2-yl)propanoic acid]
2 | – | – | – | > 10000 | > 10000 | > 10000 | C[C@H](NC(=O)Cn1c(CCC(=O)O)nc2c(Cl)cccc2c1=O)c1c(F)cccc1F [compound 15, (S)-3-(8-chloro-3-(2-((1-(2,6-difluorophenyl)ethyl)amino)-2-oxoethyl)-4-oxo-3,4-dihydroquinazolin-2-yl)propanoic acid]
